# Results: patent publication US4193997A, “Thieno[2,3-c] and [3,2-c]pyridines, process for their preparation and therapeutic applications thereof” (Parcor, priority 1977, dated 1980)
# Legend:
# mouse = experiment: Antalgic action, mechanical stimulation method according to Haffner; type: in vivo; conditions: 100 mg/kg oral
# Experimental: (a) Mechanical stimulation method according to Haffner (Deutsch. Wish., 1959, 55, 731-733). This method comprises placing a pressure forceps at the base of the tail of a mouse and recording the number of bites self-inflicted by the animal in its endeavour to remove the forceps. The decrease of the number of bites prior and subsequent to oral administration of the test compound at a dosage of 100 mg/kg provides a measure of the antalgic activity of the derivatives of this invention.
# [1] = system: collagen-induced blood-platelet aggregation; experiment: Collagen-induced blood-platelet aggregation after oral treatment of rats; type: in vivo, Wistar rats; conditions: Rattus norvegicus, 100 mg/kg oral, 3 hrs after treatment, collagen (bovine tendon extract), read-out: Percent inhibition of blood-platelet aggregation, Collagen
# [2] = system: carrageenin-induced edema; experiment: Localized carrageenin-induced edema method; type: in vivo; conditions: rats, 100 mg/kg oral one hour before, with, and 1 and 2.5 hours after carrageenin
# Experimental: 0.1 ml of a 1% carrageenin solution is injected at time O in the metatarsal flexor muscles of the right hind limb of rats.
# The animals of the treated group are additionally orally administered 100 mg/kg of the test derivative, respectively one hour prior to, and then simultaneously with the phlogogenic agent, and then one hour and 2.5 hours thereafter. The determinations effected with a ROCH micrometer at times 0, 1 hr, 2 hrs, 3 hrs and 5 hrs after carrageenin administration make it possible to determine the percent anti-inflammatory activity, as a function of time.
# [3] = system: ovalbumin-induced systemic edema; experiment: Ovalbumin-induced systemic edema method; type: in vivo; conditions: rats, 100 mg/kg oral one hour before and with ovalbumin
# Experimental: Rats are administered a simultaneous intraperitoneal injection of 1 ml ovalbumin and 0.5 ml of a 1% aqueous Evans Blue solution. The animals of the treated group are additionally orally administered 100 mg/kg of the test derivative, one hour prior to ovalbumin administration and then simultaneously with said ovalbumin administration. The intensity of the phenomenon thus induced is rated according to a scale from 1 to 5, according to the progress of the inflammatory syndrome. The determinations are effected after 2 hours and after 3 hours. Thus are determined the mean intensity of the edema and the percent decrease of the edema reaction.
# [4] = system: A.D.P.-induced blood-platelet aggregation; experiment: A.D.P.-induced blood-platelet aggregation after oral treatment of rats; type: in vivo, Wistar rats; conditions: Rattus norvegicus, 100 mg/kg oral, 3 hrs after treatment, 10 μM A.D.P. solution, read-out: Percent inhibition of blood-platelet aggregation, A.D.P.
# Red blood cells [5] = experiment: Anti-sludge in vitro, "curative" procedure (protamine sulfate agglomeration of red blood cells); type: cell-based, rats; conditions: 25 μg
# Experimental: (§1) Red blood cells of rats are washed three times and diluted to 1/250 concentration in physiological saline. In each of 5 tubes are placed 0.6 ml of this suspension and 0.2 ml physiological saline. Into each tube is then added, respectively, an amount of 0, 25, 50, 100 and 200 μg of the test derivative contained in 0.2 ml of solution. After incubation for one hour at 37° C., 0.2 ml of a solution containing 125 μg/ml protamine sulfate is added thereto, and the resulting material is further incubated for 0.5 hour at 37° C. The red blood cells of each tube are then examined with a Mallasez cell, and the percent free red blood cells (RBC) and the percent agglomerates formed by 2, 3, 4, 5 . . . RBC are noted.
# The test was repeated according to a "curative" procedure. The red blood cells were first contacted with the protamine sulfate and, after incubation for 0.5 hour, 0.2 ml containing 25 μg of the test derivative were added thereto, after which the material was further incubated for one hour at 37° C.
# Red blood cells [6] = experiment: Anti-sludge in vitro, "preventive" treatment (protamine sulfate agglomeration of red blood cells); type: cell-based, rats; conditions: for percent agglomerates formed by 5 RBC: controls 6 or 8; for percent agglomerates formed by 4 RBC: controls 9 or 8; for percent agglomerates formed by 3 RBC: controls 13 or 14; for percent agglomerates formed by 2 RBC: controls 17 or 16; for percent free red blood cells (size 1): controls 32 (n°3, 4, 6) or 30 (n°11, 12, 17)
# Experimental: as §1
# mice = experiment: Antalgic action, acetic acid method according to Koster, Anderson & de Beer; type: in vivo; conditions: 100 mg/kg oral, 30 minutes prior to i.p. acetic acid
# Text: (b) Acetic acid method, according to Koster, Anderson & de Beer (Fed. Proced., 18, 1959, 412, 1, 626)
# Intraperitoneal injection of a dilute acetic acid solution induces, in mice, characteristic writhing movements which are repeated due to the effect of pain.
smiles,measurement,setting,value
"CC(=O)N1CC(c2ccccc2)c2ccsc2C1=O (stereo not drawn) [Derivative n°17, 4-Phenyl-6-acetyl-7-oxo-4,5,6,7-tetrahydro-thieno[2,3-c]-pyridine]",mean percent antalgia after 30 min.,mouse; after 30 min.,70%
same,mean percent antalgia after 1 hr,mouse; after 1 hr,65%
same,mean percent antalgia after 2 hrs,mouse; after 2 hrs,60%
same,mean percent antalgia after 3 hrs,mouse; after 3 hrs,55%
same,inhibition at 100 mg/kg,[1],91.7%
same,Percent anti-inflammatory activity after 1 hour,[2]; after 1 hour,37%
same,Percent anti-inflammatory activity after 2 hours,[2]; after 2 hours,49%
same,Percent anti-inflammatory activity After 3 hours,[2]; after 3 hours,54%
same,Percent decrease of the edema reaction After 2 hours,[3]; after 2 hours,46%
same,Percent decrease of the edema reaction After 3 hours,[3]; after 3 hours,58%
same,inhibition at 100 mg/kg,[4],61.3%
same,"percent aggregates, size of agglomerates 5",Red blood cells [5]; reference tests 8 or 9,1%
same,"percent aggregates, size of agglomerates 4",Red blood cells [5]; reference tests 11,1%
same,"percent aggregates, size of agglomerates 3",Red blood cells [5]; reference tests 15 or 16,2%
same,"percent aggregates, size of agglomerates 2",Red blood cells [5]; reference tests 19,16%
same,"percent aggregates, size of agglomerates 1","Red blood cells [5]; reference tests 33 (n°3, 4, 6) or 30 (n°11, 12, 17)",80%
same,percent agglomerates formed by 5 RBC,Red blood cells [6]; 25 μg per tube,3%
same,percent agglomerates formed by 4 RBC,Red blood cells [6]; 25 μg per tube,3%
same,percent agglomerates formed by 3 RBC,Red blood cells [6]; 25 μg per tube,13%
same,percent agglomerates formed by 2 RBC,Red blood cells [6]; 25 μg per tube,23%
same,percent free red blood cells (size 1),Red blood cells [6]; 25 μg per tube,58%
same,percent agglomerates formed by 5 RBC,Red blood cells [6]; 50 μg per tube,1%
same,percent agglomerates formed by 4 RBC,Red blood cells [6]; 50 μg per tube,2%
same,percent agglomerates formed by 3 RBC,Red blood cells [6]; 50 μg per tube,4%
same,percent agglomerates formed by 2 RBC,Red blood cells [6]; 50 μg per tube,28%
same,percent free red blood cells (size 1),Red blood cells [6]; 50 μg per tube,65%
same,percent agglomerates formed by 5 RBC,Red blood cells [6]; 100 μg per tube,1%
same,percent agglomerates formed by 4 RBC,Red blood cells [6]; 100 μg per tube,1%
same,percent agglomerates formed by 3 RBC,Red blood cells [6]; 100 μg per tube,4%
same,percent agglomerates formed by 2 RBC,Red blood cells [6]; 100 μg per tube,14%
same,percent free red blood cells (size 1),Red blood cells [6]; 100 μg per tube,80%
same,percent agglomerates formed by 4 RBC,Red blood cells [6]; 200 μg per tube,1%
same,percent agglomerates formed by 3 RBC,Red blood cells [6]; 200 μg per tube,2%
same,percent agglomerates formed by 2 RBC,Red blood cells [6]; 200 μg per tube,9%
same,percent free red blood cells (size 1),Red blood cells [6]; 200 μg per tube,88%
same,percent antalgia,mice,68%
